This is an account of results in PubChem BioAssay (NCI).

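Values below derive from 48-hour exposures of cells grown in 96-well plates, with endpoints linearly interpolated between the two concentrations bracketing the appropriate inhibition level. GI50 = concentration required for 50% inhibition of growth. TGI marks complete inhibition of growth.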

Common to all, as to experiment: NCI-60 cell line screen, 48 h
Experiment [1] has as its system EKVX NSCLC.
Experiment [2] deals with IGROV1 ovarian.
In experiment [3] the test system is UACC-62 melanoma.
The subject of experiment [4] is SW-620 colon.
The test system of experiment [5] is SNB-19 CNS.
Experiment [6] relates to SNB-75 CNS.
In experiment [7] the test system is M14 melanoma.
Experiment [8] deals with COLO 205 colon.
The test system of experiment [9] is K-562 leukemia.
For experiment [10], the system named is OVCAR-4 ovarian.

With `ClCCn1cnc2c(SCc3ccccc3)ncnc21`, the GI50 is 18.3 µM in experiment [1]; 0.497 µM in [2]; 6.65 µM in [3]; 3.14 µM in experiment [4]; 2.61 µM in [5]; 0.777 µM in [6]. Moreover, the GI50 in [7] is 7.04 µM; in experiment [8], 1.79 µM; in [9] it was 0.64 µM; in experiment [10] it was 19.8 µM. Also, the TGI in [1] is more than 100 µM; in experiment [2], 10.7 µM; in experiment [3], more than 100 µM; in experiment [4], more than 100 µM; in experiment [5] it was more than 100 µM; in experiment [6], more than 100 µM. For the same compound, the TGI in experiment [7], in experiment [8], in [9] and in [10] was more than 100 µM throughout.
In the case of `CCOC(=O)c1c2ccc(/C=C/C(=O)OC)ccc-2c(C(=O)OCC)c1N`, the TGI in experiment [1], in experiment [2], in experiment [3], in experiment [4], in [5] and in experiment [6] was more than 100 µM in each case. The TGI in [7], in experiment [8], in experiment [9] and in [10] was more than 100 µM throughout.
As to `CC[C@@]1(OC(=O)CCC(=O)O)C(=O)OCc2c1cc1n(c2=O)Cc2cc3ccccc3nc2-1`, the TGI was more than 100 µM in experiment [1]; 5.98 µM in [2]; 0.255 µM in [3]; 16.8 µM in [4]; more than 43 µM in [5]; 2.54 µM in experiment [6]. The TGI in [7] is 1.41 µM; in [8], 8.49 µM; in [9], more than 61.8 µM; in experiment [10], 13.3 µM.
Consider `OCC1OC(N2C=C(c3nc4ccccc4s3)C3C=CC=CC32)C(O)C1O` (stereo not given), for which the GI50 in experiment [1] was 6.27 µM; in experiment [2] it was 14.8 µM; in experiment [3], 8.92 µM; in [4], 9.82 µM; in [5], 18.9 µM; in [6], 7.8 µM. Also, the GI50 in experiment [7] is 9.6 µM; in experiment [8], 14.1 µM; in experiment [9] it was 16.3 µM; in experiment [10], 14.3 µM. Further, the TGI in [1] was 25.4 µM; in experiment [2], more than 50 µM; in experiment [3], 19 µM; in [4], more than 50 µM; in experiment [5], more than 50 µM; in [6], 26 µM. Further, the TGI is 22.4 µM in experiment [7], 49.6 µM in [8], more than 50 µM in experiment [9] and more than 50 µM in [10].
Consider `O=C(O)c1[nH]c(C(=O)O)c(CC(F)(F)C(F)(F)C(F)(F)F)c1CC(F)(F)C(F)(F)C(F)(F)F`, for which the TGI in experiment [1], in [2], in [3], in [4], in experiment [5] and in experiment [6] was more than 100 µM throughout. Also, the TGI in experiment [7], in experiment [8], in [9] and in [10] was more than 100 µM each time.
For the compound `CCc1cccc(C)c1NC(=O)CC1Sc2ccccc2NC1=O` (stereo not given), the TGI in experiment [1] was more than 100 µM; in [2], more than 100 µM; in experiment [3], more than 100 µM; in experiment [4], more than 100 µM; in experiment [5] it was more than 100 µM; in [6] it was 75 µM. Moreover, the TGI in [7], in experiment [8], in experiment [9] and in experiment [10] was more than 100 µM each time.
On to `O=c1oc2c3ccc4ccccc4c3n(Cc3nc4ccccc4[nH]3)c2c2ccccc12`, for which the TGI in [1] is more than 31.6 µM; in [2], more than 100 µM; in experiment [3] it was more than 100 µM; in experiment [4] it was more than 100 µM; in experiment [5] it was more than 100 µM; in experiment [6], more than 87.7 µM. The TGI in experiment [7], in experiment [8], in experiment [9] and in [10] was more than 100 µM throughout.
Regarding `CC1(C)C(=O)/C(=C\c2ccco2)C[C@]2(C)[C@H]3CC=C4[C@@H]5C[C@](C)(C(=O)O)CC[C@]5(C)CC[C@@]4(C)[C@]3(C)CC[C@@H]12`, the GI50 was 4.63 µM in experiment [1]; 8.56 µM in [2]; 6.49 µM in [3]; 10.2 µM in experiment [4]; 10.2 µM in [5]; 24.6 µM in experiment [6]. Moreover, the GI50 in experiment [7] was 13.3 µM; in experiment [8], 9.31 µM; in experiment [9], 5.17 µM; in [10] it was 12.8 µM. Moreover, the TGI in [1] is 17.3 µM; in [2], 28.3 µM; in [3], 20.3 µM; in experiment [4], 25.9 µM; in experiment [5], 22.7 µM; in experiment [6], more than 100 µM. For the same compound, the TGI was determined as 35.1 µM in experiment [7], 25.5 µM in [8], 93 µM in experiment [9] and 27 µM in experiment [10].
Consider `N#CC1C(N)=NNC1c1ccc(-c2ccc(-c3nc4ccccc4o3)cc2)o1` (stereo not given), for which the GI50 in [1] was 14.6 µM; in experiment [2], 69.4 µM; in experiment [3] it was 23.9 µM; in experiment [4], 74.9 µM; in experiment [5] it was more than 100 µM; in experiment [6], more than 100 µM. Besides, the GI50 was 63.7 µM in experiment [7], 30.9 µM in [8], 64.6 µM in experiment [9] and 90.8 µM in experiment [10]. In addition, the TGI is 81.2 µM in experiment [1]; more than 100 µM in experiment [2]; 91.1 µM in experiment [3]; more than 100 µM in experiment [4]; more than 100 µM in experiment [5]; more than 100 µM in [6]. Besides, the TGI in experiment [7], in experiment [8], in experiment [9] and in [10] was more than 100 µM each time.
Take `Nc1ccc2c(c1)[O][Sn]([c]1ccccc1)([c]1ccccc1)[O]C2=O`: the GI50 in experiment [1] is 10.6 µM; in experiment [2] it was 12.4 µM; in experiment [3], 5.94 µM; in experiment [4] it was 2.93 µM; in experiment [5], 17.3 µM; in experiment [6], 7.64 µM. Besides, the GI50 in [7] was 11.2 µM; in experiment [8], 6.58 µM; in [9], 2.56 µM; in experiment [10], 12.9 µM. The TGI in [1] amounted to 25 µM; in experiment [2], 29.2 µM; in experiment [3] it was 16.3 µM; in experiment [4] it was 8.35 µM; in [5] it was 31.3 µM; in experiment [6] it was 18.9 µM. Also, the TGI amounted to 25.4 µM in experiment [7], 13.2 µM in experiment [8], 15.2 µM in [9] and 28.4 µM in [10].
